Data published in PMC7261162 (2020).
Blank lines part the entries; values can stand above or below the compound they belong to.

Legend:
[1] = tested on: CatG4-ext (DNA, G4) ACATAGCTGACTGGCTTGATTTTGGGTAGGGCGGGTTGGGAAATATCGAATTCTCAGCCTACACTGCAGTACTAGTACATATCA; test: competition with hemin: StAv gel shift of self-biotinylation; conditions: 20 mM KCl, 40 mM HEPES pH 8.0, 22°C, 5 uM hemin
[2] = tested on: rBCL2 (RNA, G4) AGGGGGCCGUGGGGUGGGAGCUGGGG; test: hemin-dependent self-biotinylation, StAv gel shift (indirect); conditions: 20 mM KCl; 40 mM HEPES pH 8.0, 22°C; 5 uM hemin
[3] = tested on: CatG4-T7 / ssDNA duplex-GQ chimera (DNA, G4) TGGGTAGGGCGGGTTGGGAAATATCCTATAGTGAGTCGTATTAAAG/CTTTAATACGACTCACTATAGG; test: as above; conditions: 20 mM KCl, 26 mM MgCl2, 2.5 mM spermidine; QD buffer pH 8.0; 1 uM DNA, 5 uM hemin; CatG4-T7 strand 52%, ssDNA strand 3% biotinylated
[4] = tested on: MYC (DNA, G4) TGAGGGTGGGTAGGGTGGGTAA; test: as above; conditions: 20 mM KCl; 40 mM HEPES pH 8.0, 22°C; 5 uM hemin
[5] = tested on: KIT1 (DNA, G4) AGGGAGGGCGCTGGGAGGAGGG; test: as above; conditions: 20 mM KCl; 40 mM HEPES pH 8.0, 22°C; 5 uM hemin
[6] = tested on: TBA (DNA, G4) GGTTGGTGTGGTTGG; test: as above; conditions: 20 mM KCl; 40 mM HEPES pH 8.0, 22°C; 5 uM hemin
[7] = tested on: KIT2 (DNA, G4) CGGGCGGGCGCGAGGGAGGGG; test: as above; conditions: 20 mM KCl; 40 mM HEPES pH 8.0, 22°C; 5 uM hemin
[8] = tested on: CatG4-ext2 / Comp-1 / ssDNA / Comp-3 GQ-duplex chimera (DNA, G4) TGGGTAGGGCGGGTTGGGAAATATTTTAGCTCACGAGACGCTCCCATAGTGACCTATAGTGAGTCGTATTAAAGTCCGGAGGACTGTCCTCCGGC/TCACTATGGGAGCGTCTCGTGAGCTAAA/CTTTAATACGACTCACTATAGG/GCCGGAGGACAGTCCTCCGGA; test: as above; conditions: 20 mM KCl, 26 mM MgCl2, 2.5 mM spermidine; QD buffer pH 8.0; 1 uM DNA, 5 uM hemin; ssDNA strand not biotinylated
[9] = tested on: hTELO (DNA, G4) GGTTAGGGTTAGGGTTAGGGTTAGGGTTAG; test: as above; conditions: 20 mM KCl; 40 mM HEPES pH 8.0, 22°C; 5 uM hemin
[10] = tested on: rNRAS (RNA, G4) AGGGAGGGGCGGGUCUGGG; test: as above; conditions: 20 mM KCl; 40 mM HEPES pH 8.0, 22°C; 5 uM hemin
[11] = tested on: CatG4-ext (DNA, G4) ACATAGCTGACTGGCTTGATTTTGGGTAGGGCGGGTTGGGAAATATCGAATTCTCAGCCTACACTGCAGTACTAGTACATATCA; test: as above; conditions: 20 mM KCl, 26 mM MgCl2, 2.5 mM spermidine; QD buffer pH 8.0, 22°C; 10 nM DNA, 5 uM hemin, 100 uM ssDNA or dsDNA competitor
[12] = tested on: CatG4 (DNA, G4) TGGGTAGGGCGGGTTGGGAAA; test: as above; conditions: 20 mM KCl; 40 mM HEPES pH 8.0, 22°C; 5 uM hemin
[13] = tested on: SPB1 (DNA, G4) GGCGAGGAGGGGCGTGGCCGGC; test: as above; conditions: 20 mM KCl; 40 mM HEPES pH 8.0, 22°C; 5 uM hemin
[14] = 20 uM ligand lowers biotinylation 67% to 22-23%

binding [1, 14]: yes
SMILES: CN(C)c1ccc(Nc2c3ccc(NC(=O)CCN4CCCC4)cc3nc3cc(NC(=O)CCN4CCCC4)ccc23)cc1

binding ([1]; 20 uM ligand lowers biotinylation 67% to 1%): yes
SMILES: NCCOc1cc(C(=O)Nc2cc(OCCN)c3ccccc3n2)nc(C(=O)Nc2cc(OCCN)c3ccccc3n2)c1

binding [2]: yes
binding [3]: yes
binding [4]: yes
binding [5]: yes
binding [6]: weak
binding [7]: yes
binding [8]: yes
binding [9]: yes
binding [10]: yes
binding [11]: yes
binding [12]: yes
binding [13]: weak
SMILES: C=CC1=C(C)C2=Cc3c(C=C)c(C)c4[n]3[Fe]([Cl])[n]3c(c(C)c(CCC(=O)O)c3=CC3=NC(=C4)C(C)=C3CCC(=O)O)=CC1=N2

binding [1, 14]: yes
SMILES: CCc1c(C)c2cc3nc(cc4nc(cc5c(CC)c(C)c(cc1[nH]2)n5C)C(C)=C4CCC(=O)O)C(CCC(=O)O)=C3C
